The results in this text go back to ChEMBL document CHEMBL3745631, “Discovery of highly potent and selective Bruton's tyrosine kinase inhibitors: Pyridazinone analogs with improved metabolic stability” (Bioorg Med Chem Lett, 2016).

In data set [1] the test system is Liver microsome. Description: Intrinsic clearance in human liver microsomes at 1 uM by LC-MS/MS analysis in absence of NADPH. In kind it is ADME. (In general: Microsomes from liver hold many membrane-bound enzymes, among them those of drug oxidation.)
Data set [2] relates to Hepatocyte. Description: Intrinsic clearance in human hepatocytes at 1 uM by LC-MS/MS analysis. In kind it is ADME, cell-based.
The target in data set [3] is Tyrosine-protein kinase BTK (Homo sapiens, UniProt Q06187). Description: Inhibition of BTK (unknown origin) by Lanthascreen assay. A general note: TR-FRET usually uses a lanthanide donor and a delayed reading to cut background.
Sequence of Tyrosine-protein kinase BTK (Homo sapiens, UniProt Q06187) (Q06187 whole entry): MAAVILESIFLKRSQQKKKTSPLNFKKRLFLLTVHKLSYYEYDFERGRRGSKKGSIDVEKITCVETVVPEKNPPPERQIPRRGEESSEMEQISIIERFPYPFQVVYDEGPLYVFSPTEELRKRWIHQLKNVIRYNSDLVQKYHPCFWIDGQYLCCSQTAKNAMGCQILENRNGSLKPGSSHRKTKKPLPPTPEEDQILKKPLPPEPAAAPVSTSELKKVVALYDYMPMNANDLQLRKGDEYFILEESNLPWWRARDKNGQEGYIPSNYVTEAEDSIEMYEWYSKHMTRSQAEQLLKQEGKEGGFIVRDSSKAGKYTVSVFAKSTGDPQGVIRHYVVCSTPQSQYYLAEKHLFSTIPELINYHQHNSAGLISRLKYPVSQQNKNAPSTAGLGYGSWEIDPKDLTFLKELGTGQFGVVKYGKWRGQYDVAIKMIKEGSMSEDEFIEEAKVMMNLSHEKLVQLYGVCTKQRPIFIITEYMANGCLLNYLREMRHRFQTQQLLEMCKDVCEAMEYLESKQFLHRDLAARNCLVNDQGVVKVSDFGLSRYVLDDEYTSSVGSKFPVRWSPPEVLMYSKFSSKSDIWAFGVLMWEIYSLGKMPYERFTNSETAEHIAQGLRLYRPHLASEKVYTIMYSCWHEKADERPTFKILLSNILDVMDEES
The subject of data set [4] is Liver microsome. Description: Intrinsic clearance in human liver microsomes at 1 uM by LC-MS/MS analysis in presence of NADPH. In kind it is ADME.
Data set [5] has as its target Tyrosine-protein kinase BTK (Mus musculus, UniProt P35991). Description: Inhibition of BTK in Balb/c mouse B cells assessed as inhibition of anti-IgM-stimulated CD86 expression by flow cytometry. In kind it is cell-based.

Sequence of Tyrosine-protein kinase BTK (Mus musculus, UniProt P35991) (P35991 whole entry): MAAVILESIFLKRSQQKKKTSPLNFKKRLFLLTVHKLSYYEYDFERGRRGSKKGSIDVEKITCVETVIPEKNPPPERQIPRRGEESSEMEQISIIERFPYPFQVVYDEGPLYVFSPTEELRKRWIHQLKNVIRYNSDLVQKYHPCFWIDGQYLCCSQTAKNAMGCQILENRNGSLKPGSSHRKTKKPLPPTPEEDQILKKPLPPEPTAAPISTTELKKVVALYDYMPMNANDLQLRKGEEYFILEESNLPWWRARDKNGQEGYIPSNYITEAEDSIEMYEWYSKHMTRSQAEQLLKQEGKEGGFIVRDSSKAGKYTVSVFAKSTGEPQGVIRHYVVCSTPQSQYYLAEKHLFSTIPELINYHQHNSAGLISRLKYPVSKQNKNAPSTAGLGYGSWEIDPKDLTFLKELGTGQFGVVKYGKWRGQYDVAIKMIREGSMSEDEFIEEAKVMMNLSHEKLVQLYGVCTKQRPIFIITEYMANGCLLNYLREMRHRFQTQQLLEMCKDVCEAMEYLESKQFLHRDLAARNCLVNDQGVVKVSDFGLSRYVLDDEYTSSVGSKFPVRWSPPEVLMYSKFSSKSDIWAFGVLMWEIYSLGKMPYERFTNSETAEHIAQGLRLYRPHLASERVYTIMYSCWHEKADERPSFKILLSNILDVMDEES

For orientation: IC50 means the concentration that inhibits the measured activity by half. `Cc1c(-c2cc(Nc3cc4n(n3)CCN(C)C4)c(=O)[nH]n2)ccc(F)c1NC(=O)c1cnc(C(C)(C)C)cn1`: the CLH in data set [1], in data set [2] and in data set [4] was 6 mL/min/kg in each case. In addition, the results for the IC50 in data set [3] and in data set [5] were 4 nM and 90 nM, respectively.
`CN1CCN(C)C(c2ccc(Nc3nc(-c4cccc(NC(=O)c5cc6c(s5)CCCC6)c4F)cn(C)c3=O)cc2)C1=O` (racemic) yielded a CLH in data set [1] of more than 15 mL/min/kg.
For `Cc1c(-c2cc(Nc3cc4n(n3)CCN(C)C4)c(=O)[nH]n2)ccc(F)c1NC(=O)c1cc2cccnc2s1`, the CLH in data set [1] and in data set [4] was 6 mL/min/kg throughout. Further, the IC50 in data set [5] is 740 nM.
Regarding `Cc1c(-c2cn(C)c(=O)c(Nc3ccc(C4C(=O)N(C)CCN4C)cc3)n2)ccc(F)c1NC(=O)c1cc2c(s1)CCCC2` (stereo in doubt; 14), the CLH in data set [1] is less than 6 mL/min/kg.
The same measure, in the same setting: with `CN1CCN(C)C(c2ccc(Nc3nc(-c4ccc(F)c(NC(=O)c5cc6c(s5)CCCC6)c4)cn(C)c3=O)cc2)C1=O` (stereo in doubt; 7) the figure was less than 6 mL/min/kg.
On the same count and under the same terms, with `CN1CCN(C)C(c2ccc(Nc3nc(-c4cccc(NC(=O)c5cc6c(s5)CCCC6)c4Cl)cn(C)c3=O)cc2)C1=O` (racemic) the figure was more than 15 mL/min/kg; with `CN1CCN(C)C(c2ccc(Nc3nc(-c4cccc(NC(=O)c5cc6c(s5)CCCC6)c4)cn(C)c3=O)cc2)C1=O` (racemic), more than 15 mL/min/kg; with `Cc1c(-c2cn(C)c(=O)c(Nc3ccc(C4C(=O)N(C)CCN4C)cc3)n2)ccc(Cl)c1NC(=O)c1cc2c(s1)CCCC2` (racemic), 6 mL/min/kg.
Still for that read-out and setting: the value for `Cc1c(NC(=O)c2cc3c(s2)CCCC3)cccc1-c1cn(C)c(=O)c(Nc2ccc([C@@H]3C(=O)N(C)CCN3C)cc2)n1` was more than 15 mL/min/kg.
As to `Cc1ccc(-c2cc(Nc3cc4n(n3)CCN(C)C4)c(=O)[nH]n2)c(C)c1NC(=O)c1cc2ccccc2s1`, the CLH in data set [1] is less than 6 mL/min/kg; in data set [4], more than 15 mL/min/kg. The IC50 in data set [5] amounted to 387 nM.
As to `CN1CCN(C)C(c2ccc(Nc3nc(-c4ccc(Cl)c(NC(=O)c5cc6c(s5)CCCC6)c4)cn(C)c3=O)cc2)C1=O` (racemic), the CLH in data set [1] came out at 6 mL/min/kg.
With `Cc1ccc(-c2cc(Nc3cc4n(n3)CCN(C)C4)c(=O)[nH]n2)c(F)c1NC(=O)c1cc2ccccc2s1`, the CLH in data set [1] and in data set [4] was 6 mL/min/kg in each case. Also, the IC50 in data set [3] was found to be 11 nM; in data set [5], 200 nM.
Consider `Cc1ccc(-c2cn(C)c(=O)c(Nc3ccc([C@H]4C(=O)N(C)CCN4C)cc3)n2)c(F)c1NC(=O)c1cc2c(s1)CCCC2`, for which the CLH in data set [1] is less than 6 mL/min/kg.
Still for that read-out and setting: with `Cc1c(-c2cn(C)c(=O)c(Nc3ccc(C4C(=O)N(C)CCN4C)cc3)n2)ccc(F)c1NC(=O)c1cc2c(s1)CCCC2` (stereo in doubt; 13) the figure was 6 mL/min/kg.
Same read-out and setting: with `CN1CCN(C)C(c2ccc(Nc3nc(-c4ccc(F)c(NC(=O)c5cc6c(s5)CCCC6)c4F)cn(C)c3=O)cc2)C1=O` (configuration not stated) the figure was 6 mL/min/kg; with `Cc1ccc(-c2cn(C)c(=O)c(Nc3ccc(C4C(=O)N(C)CCN4C)cc3)n2)c(Cl)c1NC(=O)c1cc2c(s1)CCCC2` (configuration not stated), less than 6 mL/min/kg.
On to `CN1CCn2nc(Nc3cc(-c4ccc(F)c(NC(=O)c5cc6ccccc6s5)c4F)n[nH]c3=O)cc2C1`, for which the CLH in data set [2] was 6 mL/min/kg; in data set [4], more than 15 mL/min/kg. The 50% inhibitory concentration (IC50) in data set [5] was 18 nM.
For `CN1CCN(C)C(c2ccc(Nc3nc(-c4ccc(F)c(NC(=O)c5cc6c(s5)CCCC6)c4)cn(C)c3=O)cc2)C1=O` (stereo in doubt; 8), the CLH in data set [1] amounted to 6 mL/min/kg.
Still for that read-out and setting: with `CN1CCN(C)C(c2ccc(Nc3nc(-c4ccc(C#N)c(NC(=O)c5cc6c(s5)CCCC6)c4)cn(C)c3=O)cc2)C1=O` (racemic) the figure was less than 6 mL/min/kg; with `CN1CCN(C)C(c2ccc(Nc3nc(-c4ccc(Cl)c(NC(=O)c5cc6c(s5)CCCC6)c4Cl)cn(C)c3=O)cc2)C1=O` (racemic), 6 mL/min/kg.
In the case of `Cc1c(NC(=O)c2cc3ccccc3s2)cccc1-c1cc(Nc2cc3n(n2)CCN(C)C3)c(=O)[nH]n1`, the CLH in data set [1] and in data set [4] was more than 15 mL/min/kg in each case. In data set [5], the IC50 came to 41 nM.
Take `CN1CCN(C)C(c2ccc(Nc3nc(-c4ccc(Cl)c(NC(=O)c5cc6c(s5)CCCC6)c4F)cn(C)c3=O)cc2)C1=O` (configuration not stated): the CLH in data set [1] was less than 6 mL/min/kg.
`CN1CCn2nc(Nc3cc(-c4ccc(F)c(NC(=O)c5cc6ccccc6s5)c4)n[nH]c3=O)cc2C1`: the CLH in data set [1] was less than 6 mL/min/kg; in data set [2] it was more than 15 mL/min/kg; in data set [4] it was more than 15 mL/min/kg. In addition, the IC50 in data set [5] worked out at 50 nM.
Regarding `Cc1c(-c2cc(Nc3cc4n(n3)CCN(C)C4)c(=O)[nH]n2)ccc(F)c1NC(=O)c1ccc(C(C)(C)C)cc1`, the CLH in data set [1] was 6 mL/min/kg; in data set [2], 6 mL/min/kg; in data set [4], more than 15 mL/min/kg. The IC50 in data set [3] worked out at 4 nM; in data set [5] it was 54 nM.
`Cc1ccc(-c2cn(C)c(=O)c(Nc3ccc(C4C(=O)N(C)CCN4C)cc3)n2)c(C)c1NC(=O)c1cc2c(s1)CCCC2` (racemic) yielded a CLH in data set [1] of less than 6 mL/min/kg.
The same measure, in the same setting: with `Cc1ccc(-c2cn(C)c(=O)c(Nc3ccc([C@@H]4C(=O)N(C)CCN4C)cc3)n2)c(F)c1NC(=O)c1cc2c(s1)CCCC2` the figure was less than 6 mL/min/kg.
For the compound `Cc1c(-c2cc(Nc3cc4n(n3)CCN(C)C4)c(=O)[nH]n2)ccc(F)c1NC(=O)c1cc2ncccc2s1`, the CLH in data set [1], in data set [2] and in data set [4] was 6 mL/min/kg throughout. Further, the IC50 in data set [5] amounted to 680 nM.
